From ChEMBL document CHEMBL3046388, “Antifungal and insecticidal activities of daphnodorins A, B and C” (1987)

Legend:
Assay type in all cases: functional
Tetranychus urticae = assay: Insecticidal activity against adult and eggs of Tetranychus urticae (two-spotted spider mite) assessed as mortality at 500 ppm sprayed onto organism at 25 to 27 degC measured after 5 days; settings: 120 h
Nilaparvata lugens = assay: Insecticidal activity against third-instar larvae of Nilaparvata lugens (brown planthopper) in compound treated Oriza sativa stem assessed as mortality at 500 ppm at 25 to 27 degC measured after 5 days by stem dip method; settings: 120 h
Callosobruchus chinensis = assay: Insecticidal activity against adult Callosobruchus chinensis in compound treated ingenmame leaves assessed as mortality at 500 ppm at 25 to 27 degC measured after 5 days; settings: 120 h
Spodoptera litura = assay: Insecticidal activity against third-instar larvae Spodoptera litura in compound treated cabbage leaves assessed as mortality at 500 ppm at 25 to 27 degC measured after 5 days by leaf dip method; settings: foliar, 120 h
Pyricularia oryzae [1] = assay: Antifungal activity against Magnaporthe oryzae inoculated in compound treated Oryza sativa leaves assessed as residual effect on leaves at 27 degC at 500 ppm by spraying method
Pyricularia oryzae [2] = assay: Antifungal activity against Magnaporthe oryzae inoculated in compound treated Oryza sativa leaves assessed as protective value at 27 degC at 10 ppm by spraying method
Pyricularia oryzae [3] = assay: Antifungal activity against Magnaporthe oryzae inoculated in compound treated Oryza sativa leaves assessed as protective value at 27 degC at 50 ppm by spraying method
Pyricularia oryzae [4] = assay: Antifungal activity against Magnaporthe oryzae inoculated in compound treated Oryza sativa leaves assessed as protective value at 27 degC at 200 ppm by spraying method
Blumeria graminis = assay: Antifungal activity against Blumeria graminis inoculated in compound treated Triticum aestivum leaves assessed as protective value at 27 degC at 500 ppm by spraying method
Pyricularia oryzae [5] = assay: Antifungal activity against Magnaporthe oryzae inoculated in compound treated Oryza sativa leaves assessed as protective value at 27 degC at 500 ppm by spraying method
Puccinia recondita = assay: Antifungal activity against Puccinia recondita inoculated in compound treated Triticum aestivum leaves assessed as protective value at 27 degC at 500 ppm by spraying method
Botrytis cinerea = assay: Antifungal activity against Botryotinia fuckeliana inoculated in compound treated Pisum sativum var. arvense POIL. leaves assessed as protective value at 27 degC at 500 ppm by spraying method
Phytophthora infestans = assay: Antifungal activity against Phytophthora infestans inoculated in compound treated Lycopersicon esculentum MILL, leaves assessed as protective value at 27 degC at 500 ppm by spraying method
Rhizoctonia solani = assay: Antifungal activity against Rhizoctonia solani inoculated in compound treated Oryza sativa leaves assessed as protective value at 27 degC at 500 ppm by spraying method

`O=C(c1c(O)cc(O)cc1O)c1c(-c2ccc(O)cc2)oc2cc(O)c3c(c12)O[C@H](c1ccc(O)cc1)CC3` [DAPHNODORIN A] was tested, and the mortality at 500 ppm (Tetranychus urticae) was 30%, the mortality at 500 ppm (Nilaparvata lugens) was 10% and the mortality at 500 ppm (Callosobruchus chinensis) was 0%. The mortality at 500 ppm (Spodoptera litura) was 20%, the Activity (Pyricularia oryzae [1]) was 48% and the Activity (Pyricularia oryzae [2]) was 58%. The Activity (Pyricularia oryzae [3]) was 83%, the Activity (Pyricularia oryzae [4]) was 93% and the Activity (Blumeria graminis) was 0%. The Activity (Pyricularia oryzae [5]) was 95%, the Activity (Puccinia recondita) was 0% and the Activity (Botrytis cinerea) was 0%. For the same compound, the Activity (Phytophthora infestans) was 0% and the Activity (Rhizoctonia solani) was 0%.

`O=C(c1c(O)cc(O)cc1O)c1c(-c2ccc(O)cc2)oc2cc(O)c3c(c12)O[C@H](c1ccc(O)cc1)[C@@H](O)C3` [DAPHNODORIN B] showed a mortality at 500 ppm (Tetranychus urticae) of 45%, a mortality at 500 ppm (Nilaparvata lugens) of 0% and a mortality at 500 ppm (Callosobruchus chinensis) of 30%. The mortality at 500 ppm (Spodoptera litura) was 30%, the Activity (Blumeria graminis) was 0% and the Activity (Pyricularia oryzae [5]) was 79%. It also gave an Activity (Puccinia recondita) of 0%, an Activity (Botrytis cinerea) of 0% and an Activity (Phytophthora infestans) of 0%. It also gave an Activity (Rhizoctonia solani) of 0%.

`O=C1c2c(O)cc(O)cc2O[C@]12c1c(cc(O)c3c1O[C@H](c1ccc(O)cc1)CC3)O[C@H]2c1ccc(O)cc1` [DAPHNODORIN C] was tested, and the mortality at 500 ppm (Tetranychus urticae) was 11%, the mortality at 500 ppm (Nilaparvata lugens) was 0% and the mortality at 500 ppm (Callosobruchus chinensis) was 10%. For the same compound, the mortality at 500 ppm (Spodoptera litura) was 10%, the Activity (Pyricularia oryzae [1]) was 40% and the Activity (Pyricularia oryzae [2]) was 40%. For the same compound, the Activity (Pyricularia oryzae [3]) was 69%, the Activity (Pyricularia oryzae [4]) was 89% and the Activity (Blumeria graminis) was 0%. The Activity (Pyricularia oryzae [5]) was 90%, the Activity (Puccinia recondita) was 0% and the Activity (Botrytis cinerea) was 0%. The Activity (Phytophthora infestans) was 0% and the Activity (Rhizoctonia solani) was 0%.
